{"source": "PubChem BioAssay AID588626", "about": "(NMMLSC, 2011)", "target": "Cell division control protein 42 homolog (Homo sapiens) (UniProt P60953)", "sequence (P60953 whole entry, looked up)": "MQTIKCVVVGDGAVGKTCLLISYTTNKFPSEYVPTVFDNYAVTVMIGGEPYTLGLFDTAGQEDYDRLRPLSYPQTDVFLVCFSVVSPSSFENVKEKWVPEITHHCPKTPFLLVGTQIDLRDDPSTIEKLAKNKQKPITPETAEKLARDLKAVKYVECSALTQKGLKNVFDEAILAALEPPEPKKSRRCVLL", "experiment": "inhibitors of wildtype Cdc42 GTP binding, SAR follow-up, biochemical, bead multiplex, flow cytometry, round 2 (AID 588626)", "settings": "Bead-based flow cytometry, Bodipy-FL-GTP binding, EDTA buffer; for % response (GTP binding remaining): at 100 µM (top of the series)", "note": "The source made the active and inactive calls.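 How the source made its calls: active means half-effect potency at or under 10 µM with a response span of at least 30% after curve fit checks such as Hill slope 0.5 to 2; inactive means the rest.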", "data": [{"molecule": "CC1Cc2c(sc(NC(=S)NC(=O)c3ccccc3)c2C(=O)O)CO1", "note": "(stereo not drawn)", "values": [{"measurement": "EC50", "value": 17.8, "unit": "µM"}]}, {"molecule": "CC(C)(C)C1Cc2c(sc(NC(=S)NC(=O)c3ccccc3)c2C(=O)O)CO1", "note": "(stereo not drawn)", "values": [{"measurement": "EC50", "value": 1.57, "unit": "µM"}]}, {"molecule": "CCC1(C)Cc2c(sc(NC(=S)NC(=O)c3ccccc3)c2C(=O)O)CO1", "note": "(stereo not drawn)", "values": [{"measurement": "% response (GTP binding remaining)", "value": "inactive"}]}, {"molecule": "CC1(C)Cc2c(sc(NC(=S)NC(=O)c3ccco3)c2C(=O)O)CO1", "values": [{"measurement": "% response (GTP binding remaining)", "value": "inactive"}]}, {"molecule": "CC1(C)Cc2c(sc(NC(=S)NC(=O)c3ccc(F)cc3)c2C(=O)O)CO1", "values": [{"measurement": "% response (GTP binding remaining)", "value": "inactive"}]}, {"molecule": "CC1(C)Cc2c(sc(NC(=S)NC(=O)c3ccccc3F)c2C(=O)O)CO1", "values": [{"measurement": "EC50", "value": 7.37, "unit": "µM"}]}, {"molecule": "CC1(C)Cc2c(sc(NC(=S)NC(=O)c3ccccc3Br)c2C(=O)O)CO1", "values": [{"measurement": "% response (GTP binding remaining)", "value": "inactive"}]}, {"molecule": "CC1(C)Cc2c(sc(NC(=S)NC(=O)c3cccs3)c2C(=O)O)CO1", "values": [{"measurement": "% response (GTP binding remaining)", "value": "inactive"}]}, {"molecule": "O=C(NC(=S)Nc1sc2c(c1C(=O)O)CCOC2)c1ccccc1", "values": [{"measurement": "% response (GTP binding remaining)", "value": "inactive"}]}, {"molecule": "Cc1ccc(C(=O)NC(=S)Nc2sc3c(c2C(=O)O)CC(C)(C)OC3)cc1", "values": [{"measurement": "EC50", "value": 0.528, "unit": "µM"}]}, {"molecule": "Cc1ccccc1C(=O)NC(=S)Nc1sc2c(c1C(=O)O)CC(C)(C)OC2", "values": [{"measurement": "EC50", "value": 2.66, "unit": "µM"}]}, {"molecule": "O=C(NC(=S)Nc1sc2c(c1C(=O)O)CC1(CCCC1)OC2)c1ccccc1", "values": [{"measurement": "% response (GTP binding remaining)", "value": "inactive"}]}, {"molecule": "COc1cccc(C(=O)NC(=S)Nc2sc3c(c2C(=O)O)CC(C)(C)OC3)c1", "values": [{"measurement": "% response (GTP binding remaining)", "value": "inactive"}]}, {"molecule": "CC1(C)Cc2c(sc(NC(=S)NC(=O)c3ccc(Br)cc3)c2C(=O)O)CO1", "values": [{"measurement": "% response (GTP binding remaining)", "value": "inactive"}]}, {"molecule": "CC1(C)Cc2c(sc(NC(=S)NC(=O)C3CCCCC3)c2C(=O)O)CO1", "values": [{"measurement": "EC50", "value": 2.64, "unit": "µM"}]}, {"molecule": "COc1ccccc1C(=O)NC(=S)Nc1sc2c(c1C(=O)O)CC(C)(C)OC2", "values": [{"measurement": "% response (GTP binding remaining)", "value": "inactive"}]}, {"molecule": "Cc1cccc(C(=O)NC(=S)Nc2sc3c(c2C(=O)O)CC(C)(C)OC3)c1", "values": [{"measurement": "EC50", "value": 5.87, "unit": "µM"}]}, {"molecule": "CC1(C)Cc2c(sc(NC(=S)NC(=O)c3cccc(Br)c3)c2C(=O)O)CO1", "values": [{"measurement": "EC50", "value": 19.5, "unit": "µM"}]}, {"molecule": "CC1(C)Cc2c(sc(NC(=O)NC(=O)c3ccccc3)c2C(=O)O)CO1", "values": [{"measurement": "% response (GTP binding remaining)", "value": "inactive"}]}, {"molecule": "CC1(C)Cc2c(sc(NC(=S)NC(=O)c3cccc(F)c3)c2C(=O)O)CO1", "values": [{"measurement": "% response (GTP binding remaining)", "value": "inactive"}]}, {"molecule": "CC1(C)CCc2sc(NC(=S)NC(=O)c3ccccc3)c(C(=O)O)c2C1", "values": [{"measurement": "% response (GTP binding remaining)", "value": "inactive"}]}, {"molecule": "CC1(C)Cc2c(sc(NC(=S)Nc3ccccc3)c2C(=O)O)CO1", "values": [{"measurement": "% response (GTP binding remaining)", "value": "inactive"}]}, {"molecule": "COc1ccc(C(=O)NC(=S)Nc2sc3c(c2C(=O)O)CC(C)(C)OC3)cc1", "values": [{"measurement": "% response (GTP binding remaining)", "value": "inactive"}]}]}
